US8883827B2, “Azole derivatives as WTN pathway inhibitors” (Oslo University Hospital HF, priority 2009, dated 2014)

Experiments:
[1] = tested on: HeLa (cervical adenocarcinoma) cells; test: MTS cell growth assay (Example 27); assay type: cell-based; conditions: 72 h
Experimental: (§1) 3000 cells were seeded on 96 well plates in quadruplicates for each sample. The following day, cell culture medium was mixed with compound No. 1 in various concentrations or with 0.5% DMSO vehicle (control) and added to the wells.
(§2) Eight wells of seeded control cells, defining incubation time 0 (t0), were incubated with 20 μl substrate in 100 μl phenol-free D-MEM (Invitrogen) for 3 hours, as described in the CellTiter 96® AQueous Non-Radioactive Cell Proliferation Assay (MTS) protocol (Promega). The A490 value was recorded.
(§3) Samples were measured after 72 hours. The following formula was used to determine the single well relative A490 sample values: ((Sample A490−Average A490 to)×100)/(Average A490 0.5% DMSO control−Average A490 t0).

MeWo (melanoma) cells = test: MTS cell growth assay (Example 27); assay type: cell-based; conditions: 72 h
Experimental: as §1, §2, §3

[2] = tested on: THLE2 (hepatocytes) cells; test: MTS cell growth assay (Example 27); assay type: cell-based; conditions: 72 h
Experimental: as §1, §2, §3

SW480 cells = test: BrdU/PI cell cycle analysis; assay type: cell-based; conditions: 25 μM, 72 h
Experimental: Cell cycle progression was measured by BrdU labeling of cultured cells that were counterstained with propidium iodide (PI).
SW480 cells were seeded and exposed to compounds for 3 days changing medium every day as described in Example 24. After a 30 minute incubation with 10 μM BrdU, the cells were trypsinized and stained with 1:100 diluted mouse anti-BrdU antibody (Roche) and Alexa Fluor®488 goat anti-mouse antibody (A 11001, Invitrogen). Counterstaining was done with 10 μg/mL PI in 200 μg/mL RNase I (both Sigma). Samples were analyzed on the PAS-PPCS flow cytometer and cell sorter (Partec).

SW480 colorectal cells = test: SW480 xenograft in CB17/SCID mice; assay type: in vivo
Experimental: SW480 colorectal cells were injected subcutaneously into CB17/SCID mice and palpable tumors were detected within 7 days in 50% of the mice. Randomized groups of mice were injected (i.p.) daily with compound No. 1 at doses of […] or 30 mg/kg (delivered daily for five days followed by a 2-day pause) at termination, plasma was collected and tumors were isolated and weighed. 40 female […] (Taconic) were injected subcutaneously (s.c.) at the right posterior flank with 10^7 SW480 cells diluted in 100 μl PBS. Injections were initiated when tumor formation was visible in 50% of the animals (7 days). Mice were randomized and divided into three treatment groups: 150 mg/kg compound No. 1, 300 mg/kg compound No. 1 and vehicle control 1% Tween® 80 (Sigma). Daily injections (200 μl, i.p.) followed (two day injection intermissions after every fifth injection day) until experiment end (29 days). At the termination day, 24 hours after the last injection, blood was collected after cardiac puncture and the tumors were removed and weighed. The compound concentration in plasma and tumors was determined using an on-line and off-line Solid Phase Extraction-Capillary Liquid Chromatography ([…]) instrumentation coupled to a Time of Flight (TOF) mass spectrometer, as previously described (Wilson, S. R. et al., J. Sep. Sci. 28: 1751-1758, 2005). A Zorbax SB C18 5 μm 150×0.3 mm column (Agilent, […], Calif., USA) was used for separation, and a Knauer K-2600 UV detector was used as a complimentary detector. RNA was isolated from representative groups of tumors (n=5) and analysed by real-time RT-PCR as described in Example 25 for expression of Sp5. Results were calculated as the ratio of expression of Sp5 to a control gene (hGUSB). As described in standard protocols, immunostaining was performed with rabbit polyclonal smooth muscle actin (Abcam) and monoclonal β-catenin (BD Transduction LaboratoriesTM), both diluted 1:1000. Secondary antibodies used were 1:500 diluted Alexa Fluor® 594 goat anti-rabbit antibody and Alexa Fluor® 488 goat anti-mouse antibody. The sections were imaged by a Zeiss Axiovert 200M Fluorescence/Live cell Imaging Microscope with X^40 magnification and the same exposure times.

VHR(h) = target: T1, VHR(h) (Homo sapiens, UniProt P51452); test: Phosphatase screen; assay type: biochemical; conditions: 0.1% DMSO control = 100%
T1 construct: purchased Millipore (KinaseProfiler service)

CaMKI(h) = target: T2, CaMKI(h) (Homo sapiens, UniProt Q14012); test: Kinase screen; assay type: biochemical; conditions: 0.1% DMSO control = 100%
T2 construct: purchased Millipore (KinaseProfiler service)

CDK1/cyclinB(h) = target: T3, CDK1/cyclinB(h) (Homo sapiens, UniProt P06493); test: Kinase screen; assay type: biochemical; conditions: 0.1% DMSO control = 100%
T3 construct: purchased Millipore (KinaseProfiler service)

CK2α2(h) = target: T4, CK2α2(h) (Homo sapiens, UniProt P19784); test: Kinase screen; assay type: biochemical; conditions: 0.1% DMSO control = 100%
T4 construct: purchased Millipore (KinaseProfiler service)

GRK5(h) = target: T5, GRK5(h) (Homo sapiens, UniProt P34947); test: Kinase screen; assay type: biochemical; conditions: 0.1% DMSO control = 100%
T5 construct: purchased Millipore (KinaseProfiler service)

IRAK4(h) = target: T6, IRAK4(h) (Homo sapiens, UniProt Q9NWZ3); test: Kinase screen; assay type: biochemical; conditions: 0.1% DMSO control = 100%
T6 construct: purchased Millipore (KinaseProfiler service)

NEK2(h) = target: T7, NEK2(h) (Homo sapiens, UniProt P51955); test: Kinase screen; assay type: biochemical; conditions: 0.1% DMSO control = 100%
T7 construct: purchased Millipore (KinaseProfiler service)

p70S6K(h) = target: T8, p70S6K(h) (Homo sapiens, UniProt P23443); test: Kinase screen; assay type: biochemical; conditions: 0.1% DMSO control = 100%
T8 construct: purchased Millipore (KinaseProfiler service)

Pim-1(h) = target: T9, Pim-1(h) (Homo sapiens, UniProt P11309); test: Kinase screen; assay type: biochemical; conditions: 0.1% DMSO control = 100%
T9 construct: purchased Millipore (KinaseProfiler service)

PKG1α(h) = target: T10, PKG1α(h) (Homo sapiens, UniProt Q13976); test: Kinase screen; assay type: biochemical; conditions: 0.1% DMSO control = 100%
T10 construct: purchased Millipore (KinaseProfiler service)

PRAK(h) = target: T11, PRAK(h) (Homo sapiens, UniProt Q8IW41); test: Kinase screen; assay type: biochemical; conditions: 0.1% DMSO control = 100%
T11 construct: purchased Millipore (KinaseProfiler service)

ROCK-I(h) = target: T12, ROCK-I(h) (Homo sapiens, UniProt Q13464); test: Kinase screen; assay type: biochemical; conditions: 0.1% DMSO control = 100%
T12 construct: purchased Millipore (KinaseProfiler service)

Rse(h) = target: T13, Rse(h) (Homo sapiens, UniProt Q06418); test: Kinase screen; assay type: biochemical; conditions: 0.1% DMSO control = 100%
T13 construct: purchased Millipore (KinaseProfiler service)

Rsk1(h) = target: T14, Rsk1(h) (Homo sapiens, UniProt Q15418); test: Kinase screen; assay type: biochemical; conditions: 0.1% DMSO control = 100%
T14 construct: purchased Millipore (KinaseProfiler Service)

SAPK2a(h) = target: T15, SAPK2a(h) (Homo sapiens, UniProt Q16539); test: Kinase screen; assay type: biochemical; conditions: 0.1% DMSO control = 100%
T15 construct: purchased Millipore (KinaseProfiler Service)

Hh (Shh) pathway = test: Shh Light II (Gli1-Luc) reporter assay; conditions: 1 or 10 μM, 48 h, 50% Shh-CM
Excerpt: 1) a stable reporter line for sonic hedgehog pathway, Shh Light II cells (Glil-Luc-purchased from ATCC and maintained according to suppliers recommendations);

T12 sequence (Q13464 whole entry): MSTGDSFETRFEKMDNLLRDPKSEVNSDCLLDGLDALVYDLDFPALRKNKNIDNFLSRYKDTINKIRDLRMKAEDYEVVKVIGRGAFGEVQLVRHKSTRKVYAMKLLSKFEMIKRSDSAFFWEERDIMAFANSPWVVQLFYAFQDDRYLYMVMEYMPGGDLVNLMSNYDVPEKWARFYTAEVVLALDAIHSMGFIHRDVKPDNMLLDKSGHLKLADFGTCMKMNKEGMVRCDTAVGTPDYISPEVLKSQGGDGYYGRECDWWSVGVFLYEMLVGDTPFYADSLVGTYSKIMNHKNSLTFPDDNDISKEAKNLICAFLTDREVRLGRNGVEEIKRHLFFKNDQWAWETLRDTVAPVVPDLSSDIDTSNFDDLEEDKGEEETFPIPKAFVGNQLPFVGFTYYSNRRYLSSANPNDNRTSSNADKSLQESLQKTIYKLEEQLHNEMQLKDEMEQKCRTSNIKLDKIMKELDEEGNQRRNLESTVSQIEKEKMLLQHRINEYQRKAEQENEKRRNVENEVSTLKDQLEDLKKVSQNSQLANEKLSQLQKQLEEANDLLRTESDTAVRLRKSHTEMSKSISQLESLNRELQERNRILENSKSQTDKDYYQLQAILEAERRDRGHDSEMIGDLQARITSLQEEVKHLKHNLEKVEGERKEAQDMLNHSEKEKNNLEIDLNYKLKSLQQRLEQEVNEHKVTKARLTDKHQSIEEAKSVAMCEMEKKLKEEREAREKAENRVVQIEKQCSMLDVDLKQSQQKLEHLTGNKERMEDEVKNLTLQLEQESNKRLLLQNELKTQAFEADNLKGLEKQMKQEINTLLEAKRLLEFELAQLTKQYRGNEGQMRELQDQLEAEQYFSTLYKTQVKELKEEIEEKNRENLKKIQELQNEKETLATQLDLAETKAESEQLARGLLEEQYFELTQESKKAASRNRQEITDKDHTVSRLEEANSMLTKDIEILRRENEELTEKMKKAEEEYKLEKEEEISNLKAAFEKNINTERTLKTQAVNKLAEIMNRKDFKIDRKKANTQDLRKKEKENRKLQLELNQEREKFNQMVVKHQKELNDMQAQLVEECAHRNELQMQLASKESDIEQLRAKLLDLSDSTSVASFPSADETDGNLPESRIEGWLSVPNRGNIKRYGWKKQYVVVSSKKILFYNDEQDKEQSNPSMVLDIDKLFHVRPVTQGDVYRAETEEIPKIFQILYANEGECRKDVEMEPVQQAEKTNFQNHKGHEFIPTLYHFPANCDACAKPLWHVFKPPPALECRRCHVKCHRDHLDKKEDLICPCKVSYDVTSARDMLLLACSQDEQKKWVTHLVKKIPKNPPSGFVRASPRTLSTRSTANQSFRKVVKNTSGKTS
T2 sequence (Q14012 whole entry): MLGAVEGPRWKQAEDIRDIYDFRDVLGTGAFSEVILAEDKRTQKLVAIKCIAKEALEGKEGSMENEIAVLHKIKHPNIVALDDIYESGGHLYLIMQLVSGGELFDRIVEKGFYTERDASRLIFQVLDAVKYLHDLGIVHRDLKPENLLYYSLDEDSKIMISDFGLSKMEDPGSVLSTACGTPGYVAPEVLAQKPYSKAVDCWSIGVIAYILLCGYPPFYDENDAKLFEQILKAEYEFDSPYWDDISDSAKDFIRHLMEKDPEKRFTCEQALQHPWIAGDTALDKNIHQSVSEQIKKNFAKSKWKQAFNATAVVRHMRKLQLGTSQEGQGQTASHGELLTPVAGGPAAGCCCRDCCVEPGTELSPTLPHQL
T15 sequence (Q16539 whole entry): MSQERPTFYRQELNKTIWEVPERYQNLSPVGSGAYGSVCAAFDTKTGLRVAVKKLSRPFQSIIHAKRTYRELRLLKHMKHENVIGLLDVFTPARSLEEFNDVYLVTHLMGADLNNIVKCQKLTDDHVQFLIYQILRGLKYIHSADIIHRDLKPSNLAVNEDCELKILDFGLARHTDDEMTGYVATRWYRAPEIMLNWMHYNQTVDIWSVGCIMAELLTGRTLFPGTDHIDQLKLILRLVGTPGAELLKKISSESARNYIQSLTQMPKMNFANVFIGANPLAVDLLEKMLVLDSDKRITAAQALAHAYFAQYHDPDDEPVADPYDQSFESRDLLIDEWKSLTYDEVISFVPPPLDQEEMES
T14 sequence (Q15418 whole entry): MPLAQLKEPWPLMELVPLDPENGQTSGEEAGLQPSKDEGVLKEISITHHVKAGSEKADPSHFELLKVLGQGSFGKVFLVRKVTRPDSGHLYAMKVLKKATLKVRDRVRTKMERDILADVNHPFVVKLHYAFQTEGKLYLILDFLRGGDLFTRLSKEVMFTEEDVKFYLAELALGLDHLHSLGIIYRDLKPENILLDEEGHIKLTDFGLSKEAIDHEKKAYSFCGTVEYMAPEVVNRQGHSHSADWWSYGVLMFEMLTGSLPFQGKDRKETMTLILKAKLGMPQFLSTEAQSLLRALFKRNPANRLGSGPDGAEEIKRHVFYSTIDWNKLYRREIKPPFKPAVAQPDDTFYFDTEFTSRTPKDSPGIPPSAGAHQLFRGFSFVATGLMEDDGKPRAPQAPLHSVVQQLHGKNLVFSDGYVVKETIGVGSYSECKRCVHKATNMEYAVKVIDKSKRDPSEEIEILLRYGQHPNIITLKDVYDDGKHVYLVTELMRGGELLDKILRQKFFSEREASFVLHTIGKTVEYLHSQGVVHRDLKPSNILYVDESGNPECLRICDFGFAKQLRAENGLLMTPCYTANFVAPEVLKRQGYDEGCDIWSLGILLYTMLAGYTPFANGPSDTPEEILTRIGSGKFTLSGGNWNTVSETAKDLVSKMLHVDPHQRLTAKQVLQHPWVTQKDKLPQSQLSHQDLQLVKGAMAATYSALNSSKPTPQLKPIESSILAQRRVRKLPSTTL
T1 sequence (P51452 whole entry): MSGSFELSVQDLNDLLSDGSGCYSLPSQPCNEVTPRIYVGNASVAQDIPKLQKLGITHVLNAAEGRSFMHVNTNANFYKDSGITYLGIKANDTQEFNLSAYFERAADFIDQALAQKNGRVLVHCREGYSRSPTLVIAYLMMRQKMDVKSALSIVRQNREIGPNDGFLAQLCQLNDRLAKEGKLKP
T6 sequence (Q9NWZ3 whole entry): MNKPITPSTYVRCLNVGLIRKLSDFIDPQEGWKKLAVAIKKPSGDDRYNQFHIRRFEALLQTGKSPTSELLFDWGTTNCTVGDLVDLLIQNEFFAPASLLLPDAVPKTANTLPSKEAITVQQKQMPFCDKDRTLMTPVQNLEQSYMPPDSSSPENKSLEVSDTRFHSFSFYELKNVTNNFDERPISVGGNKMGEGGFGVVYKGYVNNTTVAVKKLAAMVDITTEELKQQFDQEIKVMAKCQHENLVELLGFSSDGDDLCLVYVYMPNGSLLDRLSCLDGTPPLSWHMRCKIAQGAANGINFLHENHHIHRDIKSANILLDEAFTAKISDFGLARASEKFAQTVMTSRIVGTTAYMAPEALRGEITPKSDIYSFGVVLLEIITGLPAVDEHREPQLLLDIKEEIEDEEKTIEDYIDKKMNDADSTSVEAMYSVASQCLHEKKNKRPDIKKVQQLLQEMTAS
T11 sequence (Q8IW41 whole entry): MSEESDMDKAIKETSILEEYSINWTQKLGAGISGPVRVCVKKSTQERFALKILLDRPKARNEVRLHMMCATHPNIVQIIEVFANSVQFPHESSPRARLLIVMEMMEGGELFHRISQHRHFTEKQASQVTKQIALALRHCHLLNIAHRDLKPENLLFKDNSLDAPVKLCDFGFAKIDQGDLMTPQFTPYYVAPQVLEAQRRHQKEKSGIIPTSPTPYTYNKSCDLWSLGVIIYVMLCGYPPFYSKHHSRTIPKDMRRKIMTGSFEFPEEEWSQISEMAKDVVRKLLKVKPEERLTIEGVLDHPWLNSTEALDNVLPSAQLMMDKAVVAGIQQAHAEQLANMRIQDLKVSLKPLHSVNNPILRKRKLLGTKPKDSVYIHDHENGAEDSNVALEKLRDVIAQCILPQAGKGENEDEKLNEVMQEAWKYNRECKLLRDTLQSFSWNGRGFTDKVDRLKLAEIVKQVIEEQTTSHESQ
T13 sequence (Q06418 41-890): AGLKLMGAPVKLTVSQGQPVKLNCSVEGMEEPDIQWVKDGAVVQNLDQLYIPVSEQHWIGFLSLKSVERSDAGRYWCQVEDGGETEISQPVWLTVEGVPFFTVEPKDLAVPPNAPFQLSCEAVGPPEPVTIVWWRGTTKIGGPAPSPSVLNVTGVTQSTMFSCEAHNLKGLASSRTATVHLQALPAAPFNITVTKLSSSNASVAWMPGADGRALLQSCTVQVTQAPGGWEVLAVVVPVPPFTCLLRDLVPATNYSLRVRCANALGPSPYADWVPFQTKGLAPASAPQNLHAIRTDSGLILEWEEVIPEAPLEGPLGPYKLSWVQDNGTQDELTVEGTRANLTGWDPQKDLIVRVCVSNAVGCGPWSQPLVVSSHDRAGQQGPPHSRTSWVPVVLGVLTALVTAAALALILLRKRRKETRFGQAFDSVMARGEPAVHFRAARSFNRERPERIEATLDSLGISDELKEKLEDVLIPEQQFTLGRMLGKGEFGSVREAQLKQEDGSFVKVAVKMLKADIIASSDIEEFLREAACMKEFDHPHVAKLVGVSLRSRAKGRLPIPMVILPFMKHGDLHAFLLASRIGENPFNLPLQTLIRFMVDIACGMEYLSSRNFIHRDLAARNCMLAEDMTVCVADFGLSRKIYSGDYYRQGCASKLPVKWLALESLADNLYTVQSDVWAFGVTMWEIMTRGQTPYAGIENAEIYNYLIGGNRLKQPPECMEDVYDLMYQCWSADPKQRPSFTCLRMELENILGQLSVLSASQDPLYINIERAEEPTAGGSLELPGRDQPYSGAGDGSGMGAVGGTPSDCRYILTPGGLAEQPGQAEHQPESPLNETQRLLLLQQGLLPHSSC

COc1ccc(-n2c(SCc3nc(-c4ccc(C)cc4)no3)nnc2-c2ccncc2)cc1 [Compound 1]
growth reduction [1]: only a minor growth reduction
growth reduction (MeWo (melanoma) cells): only a minor growth reduction
growth reduction [2]: only a minor growth reduction
percentage of cells in S phase (SW480 cells; DMSO control 28.4%): 16.2%
percentage of G1-phase cells (SW480 cells; DMSO control 37.3%): 46.4%
reduction in tumor size, on average (SW480 colorectal cells; 150 mg/kg i.p. daily (5 days on, 2 off), 29 days): 33%
reduction in tumor size, on average (SW480 colorectal cells; 300 mg/kg i.p. daily (5 days on, 2 off), 29 days): 35%
adverse side effects, such as weight loss, during treatment (SW480 colorectal cells; 150 or 300 mg/kg i.p., 29 days): No obvious adverse side effects
SP5 mRNA in tumors (real-time RT-PCR, relative to hGUSB) (SW480 colorectal cells; both 150 mg/kg and 300 mg/kg doses): down-regulated
activity at 10 µM (VHR(h)): 103%
activity at 10 µM (CaMKI(h)): 97%
activity at 10 µM (CDK1/cyclinB(h)): 101%
activity at 10 µM (CK2α2(h)): 104%
activity at 10 µM (GRK5(h)): 104%
activity at 10 µM (IRAK4(h)): 98%
activity at 10 µM (NEK2(h)): 94%
activity at 10 µM (p70S6K(h)): 113%
activity at 10 µM (Pim-1(h)): 91%
activity at 10 µM (PKG1α(h)): 106%
activity at 10 µM (PRAK(h)): 55%
activity at 10 µM (ROCK-I(h)): 100%
activity at 10 µM (Rse(h)): 108%
activity at 10 µM (Rsk1(h)): 108%
activity at 10 µM (SAPK2a(h)): 106%
effect against the Hh (Shh) pathway (Hh (Shh) pathway): no substantial activating or inhibitory effect
